Entries after “also recorded” stand apart in the source; their conditions may differ.
Assays:
[1] = system: eIF4E-transfected NIH 3T3 cells; assay: transformation assay, anchorage-dependent foci formation; type: cell-based; conditions: Mus musculus, NIH3T3, read-out: apparent EC50 suppression of eIF4E-mediated transformation
eIF4E (G4E) = molecular target: T1, eIF4E (G4E) (UniProt P06654+P63073); assay: electrospray mass spectrometry of purified G4E with Ribavirin and GTP; type: binding, mouse; conditions: mixture of Ribavirin and GTP, fourfold excess
T1 construct: made in house; host or cells: E. coli BL21 (DE-3); construct a gift of Gerhard Wagner
T1 sequence (P06654+P63073 fused): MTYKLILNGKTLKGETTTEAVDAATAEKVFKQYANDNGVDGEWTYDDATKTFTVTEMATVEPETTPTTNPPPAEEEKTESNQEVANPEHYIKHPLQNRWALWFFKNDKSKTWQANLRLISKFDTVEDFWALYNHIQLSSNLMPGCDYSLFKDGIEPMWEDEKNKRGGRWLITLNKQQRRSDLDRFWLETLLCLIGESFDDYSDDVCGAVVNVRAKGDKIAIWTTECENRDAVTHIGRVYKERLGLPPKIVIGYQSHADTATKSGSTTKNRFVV
Description: FIG. 10. […] Mass spectra were recorded using the Agilent Technologies 1100 LC/MSD integrated liquid chromatograph single quadrupole electrospray mass spectrometer (ES-MS) operating in positive ion mode. […]; The solution was electrosprayed directly at […] using nebulizer pressure of 20 psi, drying nitrogen gas at 200° C. and 10 L/min, and capillary voltage of 4.5 kV. (a) ES-MS spectrum plotting ion abundance in 20 uL of the above mixture as a function of the mass/charge ratio is shown. […]. Thus, obtaining affinities from mass spectrometry data is confounded by these differences in ionization.

eIF4E W73A = molecular target: T2, eIF4E W73A (Mus musculus, UniProt P63073, W73A); assay: tryptophan fluorescence quenching titration, dorsal surface mutant; type: binding; conditions: relative to wild-type eIF4E
T2 construct: made in house
T2 sequence (P63073 whole entry W73A): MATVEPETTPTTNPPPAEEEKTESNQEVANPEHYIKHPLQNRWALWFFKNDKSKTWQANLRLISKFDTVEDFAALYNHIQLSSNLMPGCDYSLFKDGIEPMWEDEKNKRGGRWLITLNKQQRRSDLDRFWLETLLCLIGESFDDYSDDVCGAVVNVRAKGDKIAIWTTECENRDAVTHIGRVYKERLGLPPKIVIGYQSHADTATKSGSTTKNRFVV
Description: For fluorescence titrations, mouse eIF4E, which differs from human eIF4E by four nonconserved amino acids, was produced as described. For NMR spectroscopy, mouse eIF4E was expressed as a fusion with the B1 domain of protein G (G4E, kind gift of Gerhard Wagner, Harvard University, Cambridge, Mass.), in BL21 (DE-3) cells by induction with 0.8 mM isopropyl-β-D-thiogalactopyranoside at 18° C. for 20 h in M9 minimal media containing 1 g/l ^15NH4Cl as the sole nitrogen source (Cambridge Isotopes). […] Eluate was dialyzed extensively against 0.1 M NaCl/50 mM Na2PO4 (pH 6.5)/5 mM DTT at 4° C. to produce apo-G4E, as verified by using NMR spectroscopy and fluorescence titrations. […]
(§1) Fluorescence measurements were performed by using a home-built fluorimeter, as described. All titrations were performed in 0.3 M NaCl/10 mM Na2PO4 (pH 7.5)/1 μM zinc in 0.3×0.3 cm^2 fluorescence cuvette (Hellma), by using eIF4E concentration of 2 μM. […] Corrected relative fluorescence intensities were normalized, and fluorescence quenching curves were fit to a heuristic single-site-binding expression: I/I0=Kd^n/(x^n+Kd^n) where x is ligand concentration, Kd is the apparent dissociation constant, and n is the Hill coefficient.

NIH 3T3 cells = type: cell-based, mouse
Description: For assessment of necrosis and apoptosis, cells were washed twice with PBS, suspended in 0.14 M NaCl/10 mM Na-Hepes (pH 7.4/2.5 mM CaCl2 at 4° C. at a density of 10^6 cell per ml, and stained with 5 μg/ml propidium iodide and FITC-conjugated annexin V (Becton Dickinson) for 15 min at room temperature Immediately thereafter, cells were washed and analyzed by using a FACSCalibur fluorescence-activated cell scanner (Becton Dickinson). For assessment of cell-cycle profiles, cells were washed twice with PBS, fixed, and permeabilized in 70% (vol/vol) ethanol for 30 min at 4° C., and incubated in PBS containing 10 μg/ml propidium iodide and 30 units/ml RNase A at 37° C. for 30 min. For both measurements, detector gain and compensation settings were adjusted to minimize autofluorescence of unstained cells and channel crosstalk. For cell-cycle analysis, the propidium iodide channel was gated based on light scattering to exclude clumped cells, which may artifactually skew the observed fluorescence intensity.
Cells were seeded at a density of 5,000 cells per well and maintained in 100 μl per well in 96-well plates. […] Production of formazan was quantified by using a μ Quant plate reader (Bio-Tek Instruments) by monitoring the difference in absorbance at 492 and 690 nm, as referenced to the difference in absorbance of samples containing 50 μl of RPMI medium 1640 without phenol red. […]

[2] = cited from earlier work
[3] = system: normal bone marrow myeloid progenitors; assay: clonogenic assay, primary CD34+ progenitors; type: cell-based, human; conditions: micromolar concentrations
Source text: (§2) Acute myelogenous leukemia (AML) M1, M5, and normal bone marrow specimens were isolated from patients and processed as described. Primary AML cells were obtained from peripheral blood of patients at the Markey Cancer Center, University of Kentucky Medical Center (Lexington, Ky.). Normal bone marrow was obtained as waste material after pathological analysis, surgical marrow harvest, or from the National Disease Research Interchange (Philadelphia). All tissues were obtained with the approval of the Institutional Review Board and appropriate informed consent. Frozen CD34^+ progenitor cells were thawed in Iscove's modified Dulbecco's (IMD) medium supplemented with 10% (vol/vol) FBS. […] Colonies with >20 cells were counted manually and experiments were repeated four times.

AML-M1 progenitor cells = assay: clonogenic assay, primary CD34+ progenitors; type: cell-based, human; conditions: at ca. 1 uM / similar concentrations
Source text: as §2

eIF4E wild-type = molecular target: T3, eIF4E wild-type (Mus musculus, UniProt P63073); assay: tryptophan fluorescence quenching titration of nucleoside/nucleotide binding; conditions: fluorescence spectroscopy, wild-type eIF4E; read-out: apparent dissociation constant (Kd) for eIF4E
T3 construct: made in house
T3 sequence (P63073 whole entry): as the sequence (P63073 whole entry W73A) above, with A73W counted along it
Description: For fluorescence titrations, mouse eIF4E, which differs from human eIF4E by four nonconserved amino acids, was produced as described. For NMR spectroscopy, mouse eIF4E was expressed as a fusion with the B1 domain of protein G (G4E, kind gift of Gerhard Wagner, Harvard University, Cambridge, Mass.), in BL21 (DE-3) cells by induction with 0.8 mM isopropyl-β-D-thiogalactopyranoside at 18° C. for 20 h in M9 minimal media containing 1 g/l ^15NH4Cl as the sole nitrogen source (Cambridge Isotopes). Cells were lysed at 4° C. by sonication in 0.1 M NaCl/50 mM Tris.HCl (pH 7.5/0.5 mM EDTA/0.5% (vol/vol) Nonidet P-40/10 mM 2-mercaptoethanol/1 mM PMSF. Lysates were cleared by centrifugation at 30,000×g, adsorbed onto m^7G diphosphate-conjugated agarose (Amersham Pharmacia), and extensively washed with 0.1 M NaCl/20 mM Tris.HCl (pH 7.5)/0.5 mM EDTA (Buffer A) at 4° C. Subsequently, beads were washed with 0.1 mM GTP in Buffer A, and G4E was eluted with 5 mM m^7G in Buffer A. Eluate was diluted with 20 mM Na2PO4 (pH 7.5) to reduce NaCl concentration to 50 mM, applied to Sepharose Q anion exchange column (Amersham Pharmacia), and eluted with a linear gradient of NaCl in 20 mM Na2PO4 (pH 7.5) at 4° C. Eluate was dialyzed extensively against 0.1 M NaCl/50 mM Na2PO4 (pH 6.5)/5 mM DTT at 4° C. to produce apo-G4E, as verified by using NMR spectroscopy and fluorescence titrations. Purity and identity of G4E were verified by using SDS/PAGE and electrospray ionization MS. Proteins were concentrated by using Amicon concentrators (Millipore).
as §1

SMILES: NC(=O)c1ncn([C@@H]2O[C@H](CO)[C@@H](O)[C@H]2O)n1 [Ribavirin, 1-β-D-ribofuranosyl-1,2,4-triazole-3-carboxamide]
- EC50 [1]: 0.1 to 1 µM
- binding to eIF4E observed by mass shift (eIF4E (G4E)): specific binding
- effect of W73A mutation on Ribavirin affinity (eIF4E W73A): no significant effect
- proportion of cells restricted to the G1 phase (NIH 3T3 cells; 0.1 μM, untreated 58%): 91%
- concentration with significant effects on viability and metabolism (NIH 3T3 cells; mouse): ≥ 100 µM
- solubility in anhydrous ethanol ([2]; anhydrous ethanol): sparingly soluble
- solubility in water ([2]; water): freely soluble
- colony formation of normal bone marrow progenitors [3]: no effect; also recorded: lack of an effect
- colony formation of AML-M1 progenitors (AML-M1 progenitor cells): no effect; also recorded: failed to repress colony formation
- Kd (eIF4E wild-type): 8.4 µM
